Source: patent US20130035326A1 (AMBIT BIOSCIENCES CORPORATION, priority 2009, published 2013)

How the values were obtained:
MV4-11 cells = assay: MV4-11 cell proliferation assay (Alamar Blue); format: cell-based; conditions: Homo sapiens, MV4-11, 72 h, 3 days incubation
Method: The compounds disclosed herein were tested in an MV4-11 cell proliferation assay to determine their cellular potency against Flt3. MV4-11 cells carry ITD mutation within juxtamembrane domain of Flt3 kinase which renders the kinase constitutively active. […] This assay measures the potency of compounds as Flt3 inhibitors by measuring the reduction of Alamar Blue reagent by viable cells.
MV4-11 cells were grown in an incubator at 37° C. under 5% CO2 in Iscove's media (Celgro) with 10% FBS. The cell density was kept between 1e5 and 8e5 cells/mL.
On day one of the experiment, cells were harvested and spun at 500 g for 5 min at 4° C., the supernatant aspirated and the cells resuspended in Iscove's media with 0.5% FBS. Cell density was maintained at 7.5e5 to achieve maximum viability of the cells. The resuspended cells were incubated at 37° C. in 5% CO2 overnight.
On day two of the experiment, cells were diluted to 6.4e5/mL with Iscove's media with 0.5% FBS. 100 μL of the cell suspension (64,000 cells) were aliquoted into each well of a 96-well TC-treated plate. Compounds were added at 9 different concentrations, with half-log intervals alongside a control reference compound serving as a positive control. Final DMSO concentration was kept at 0.5% and final volume at 200 μL. The cells were then incubated at 37° C. under 5% CO2 for 3 days.
On day five of the experiment, 40 μL of Alamar Blue reagent was added to each well and the mixture was allowed to incubate for 3 hours. Alamar Blue fluorescence was measured using SoftMax Pro software at 560 nm (excitation) and 590 nm (emission). IC50s were generated as an average of duplicates and represents the concentration of test compound that achieves 50% inhibition of cellular proliferation compared to negative control.

CSF-1R kinase = target: T1, CSF-1R kinase (Homo sapiens, UniProt P07333); assay: Competition binding assay, CSF-1R Kd
T1 construct: made in house; host or cells: T7 phage display or HEK-293 cells
Method: (§1) In certain embodiments, competition binding assays were performed as described in Fabian et al., Nature Biotechnology 2005, 23,329-336.
(§2) Competition binding assays used herein were developed, validated and performed as described in Fabian et al., Nature Biotechnology 2005, 23,329-336. Kinases were produced as fusions to T7 phage (See, Fabian et al. or WO04/015142) or alternatively, the kinases were expressed in HEK-293 cells and subsequently tagged with DNA for PCR detection (See, WO08/005,310). For the binding assays, streptavidin-coated magnetic beads were treated with biotinylated affinity ligands for 30 min at room temperature to generate affinity resins. The liganded beads were blocked with excess biotin and washed with blocking buffer (SeaBlock (Pierce), 1% BSA, 0.05% Tween 20, 1 mM DTT) to remove unbound ligand and to reduce non-specific binding. Binding reactions were assembled by combining kinase, liganded affinity beads, and test compounds in 1× binding buffer (20% SeaBlock, 0.17×PBS, 0.05% Tween 20, 6 mM DTT). Test compounds were prepared as 100× stocks in DMSO and diluted into the aqueous environment. Kds were determined using an eleven point threefold serial dilutions. DMSO or control compounds were was added to control assays lacking a test compound. Primary screen assays were performed in polypropylene 384-well plates in a final volume of 20-40 μL, while Kd determinations were performed in polystyrene 96-well plates in a final volume of 135 μL. The assay plates were incubated at room temperature with shaking for 1 hour to allow the binding reactions to reach equilibrium, and the affinity beads were washed extensively with wash buffer (1×PBS, 0.05% Tween 20) to remove unbound protein. The beads were then resuspended in elution buffer (1×PBS, 0.05% Tween 20, 0.5 μM non-biotinylated affinity ligand) and incubated at room temperature with shaking for 30 min. The kinase concentration in the eluates was measured by quantitative PCR.

KIT kinase = target: T2, KIT kinase (Homo sapiens, UniProt P10721); assay: Competition binding assay, KIT Kd
T2 construct: made in house; host or cells: T7 phage display or HEK-293 cells
Method: as §1, §2

FLT3 kinase = target: T3, FLT3 kinase (Homo sapiens, UniProt P36888); assay: Competition binding assay, FLT3 Kd
T3 construct: made in house; host or cells: T7 phage display or HEK-293 cells
T3 sequence (P36888 27-993): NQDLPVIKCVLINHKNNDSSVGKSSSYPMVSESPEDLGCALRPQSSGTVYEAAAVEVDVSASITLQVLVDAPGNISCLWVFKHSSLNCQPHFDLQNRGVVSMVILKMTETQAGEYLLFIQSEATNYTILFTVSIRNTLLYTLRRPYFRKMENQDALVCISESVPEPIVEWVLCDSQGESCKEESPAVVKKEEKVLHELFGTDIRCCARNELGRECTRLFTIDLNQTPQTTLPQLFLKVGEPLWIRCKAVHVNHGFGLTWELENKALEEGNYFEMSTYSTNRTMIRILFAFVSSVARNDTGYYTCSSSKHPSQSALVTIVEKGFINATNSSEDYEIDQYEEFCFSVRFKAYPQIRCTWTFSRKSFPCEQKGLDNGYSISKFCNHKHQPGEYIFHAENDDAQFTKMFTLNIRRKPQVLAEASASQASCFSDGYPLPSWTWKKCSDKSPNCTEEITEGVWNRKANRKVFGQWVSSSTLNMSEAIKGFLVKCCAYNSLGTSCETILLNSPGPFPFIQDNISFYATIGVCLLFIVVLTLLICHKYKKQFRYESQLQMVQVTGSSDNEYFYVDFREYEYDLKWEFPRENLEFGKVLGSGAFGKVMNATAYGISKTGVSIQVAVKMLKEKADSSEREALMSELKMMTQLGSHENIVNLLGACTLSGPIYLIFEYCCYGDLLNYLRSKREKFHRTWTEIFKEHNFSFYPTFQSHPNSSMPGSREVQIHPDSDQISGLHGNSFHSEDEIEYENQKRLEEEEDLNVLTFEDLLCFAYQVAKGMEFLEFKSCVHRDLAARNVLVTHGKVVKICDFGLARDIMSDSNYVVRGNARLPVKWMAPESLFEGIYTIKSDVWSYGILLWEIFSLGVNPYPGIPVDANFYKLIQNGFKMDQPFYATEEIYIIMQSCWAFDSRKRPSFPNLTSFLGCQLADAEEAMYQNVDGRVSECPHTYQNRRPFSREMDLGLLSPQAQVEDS
Method: as §1, §2

T1 sequence (P07333 20-972): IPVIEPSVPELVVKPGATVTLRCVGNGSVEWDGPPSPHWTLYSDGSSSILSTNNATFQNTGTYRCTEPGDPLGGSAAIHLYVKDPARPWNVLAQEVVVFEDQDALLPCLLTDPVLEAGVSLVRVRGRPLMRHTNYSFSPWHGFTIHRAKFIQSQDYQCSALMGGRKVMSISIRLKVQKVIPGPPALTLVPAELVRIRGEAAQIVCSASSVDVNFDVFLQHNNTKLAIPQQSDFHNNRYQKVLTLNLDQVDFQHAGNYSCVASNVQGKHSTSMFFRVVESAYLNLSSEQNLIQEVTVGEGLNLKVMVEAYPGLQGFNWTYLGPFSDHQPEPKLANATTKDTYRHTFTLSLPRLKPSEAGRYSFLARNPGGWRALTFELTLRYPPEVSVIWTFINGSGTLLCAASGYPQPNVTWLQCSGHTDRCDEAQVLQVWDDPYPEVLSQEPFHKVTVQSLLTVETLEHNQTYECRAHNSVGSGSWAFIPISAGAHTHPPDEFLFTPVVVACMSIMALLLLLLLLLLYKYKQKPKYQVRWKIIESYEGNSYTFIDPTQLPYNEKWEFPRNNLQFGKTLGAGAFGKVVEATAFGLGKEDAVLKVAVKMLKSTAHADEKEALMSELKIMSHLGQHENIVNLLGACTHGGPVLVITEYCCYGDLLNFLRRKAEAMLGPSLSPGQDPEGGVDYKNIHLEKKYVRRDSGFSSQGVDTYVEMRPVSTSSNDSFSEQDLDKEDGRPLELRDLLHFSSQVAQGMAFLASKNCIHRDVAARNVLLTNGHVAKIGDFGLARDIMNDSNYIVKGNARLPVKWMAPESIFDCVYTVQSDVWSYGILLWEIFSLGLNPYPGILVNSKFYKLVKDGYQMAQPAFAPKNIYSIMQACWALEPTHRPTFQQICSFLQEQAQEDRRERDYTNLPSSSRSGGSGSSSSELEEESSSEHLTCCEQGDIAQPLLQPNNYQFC
T2 sequence (P10721 26-976): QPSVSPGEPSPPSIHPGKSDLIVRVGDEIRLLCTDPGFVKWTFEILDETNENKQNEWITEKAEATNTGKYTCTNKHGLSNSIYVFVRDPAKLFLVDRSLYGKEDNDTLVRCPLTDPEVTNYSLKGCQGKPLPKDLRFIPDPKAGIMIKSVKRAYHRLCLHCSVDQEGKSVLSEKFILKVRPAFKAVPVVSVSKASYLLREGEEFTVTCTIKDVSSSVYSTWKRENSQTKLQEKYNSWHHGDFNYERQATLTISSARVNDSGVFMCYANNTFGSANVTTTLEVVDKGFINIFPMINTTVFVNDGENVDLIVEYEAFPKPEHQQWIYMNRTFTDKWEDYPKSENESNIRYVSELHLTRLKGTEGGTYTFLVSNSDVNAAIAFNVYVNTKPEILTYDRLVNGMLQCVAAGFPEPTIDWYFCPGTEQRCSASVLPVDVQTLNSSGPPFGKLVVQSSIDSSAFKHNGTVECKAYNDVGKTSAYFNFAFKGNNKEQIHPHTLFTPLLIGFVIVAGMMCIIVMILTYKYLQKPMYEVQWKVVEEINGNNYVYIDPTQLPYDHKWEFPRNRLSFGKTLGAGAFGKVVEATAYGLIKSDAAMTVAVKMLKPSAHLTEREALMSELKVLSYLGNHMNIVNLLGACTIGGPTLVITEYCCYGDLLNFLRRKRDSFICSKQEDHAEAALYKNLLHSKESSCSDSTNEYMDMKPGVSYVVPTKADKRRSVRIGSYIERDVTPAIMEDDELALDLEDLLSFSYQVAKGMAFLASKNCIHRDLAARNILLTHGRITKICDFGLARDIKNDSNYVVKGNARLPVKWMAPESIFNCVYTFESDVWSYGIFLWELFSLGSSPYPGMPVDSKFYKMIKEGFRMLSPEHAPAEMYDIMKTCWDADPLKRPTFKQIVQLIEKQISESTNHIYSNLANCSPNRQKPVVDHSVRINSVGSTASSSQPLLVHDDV

| SMILES | IC50 (MV4-11 cells) [nM] | Kd (CSF-1R kinase) [nM] | Kd (KIT kinase) [nM] | Kd (FLT3 kinase) [nM] |
| --- | --- | --- | --- | --- |
| CC(C(=O)Nc1cc(C(C)(C)C)on1)c1ccc(-c2ccc(N)nc2)cc1 (racemic) [Example 71, 2-(4-(6-aminopyridin-3-yl)phenyl)-N-(5-tert-butylisoxazol-3-yl) propanamide] | 10 to 100 | 10 to 100 | 10 to 100 | 1 to 10 |
| CC(C)(C)c1cc(NC(=O)Nc2ccc(-c3ccc(NCCN4CCCCC4)nc3)cc2F)no1 [Example 27, 1-(5-tert-butylisoxazol-3-yl)-3-(2-fluoro-4-(6-(2-(piperidin-1-yl)ethylamino)pyridin-3-yl)phenyl)urea] | 10 to 100 | ≤ 10 | ≤ 1 | ≤ 1 |
| CC(C)(C)c1cc(NC(=O)Nc2ccc(-c3ccc(NCCCN4CCOCC4)nc3)cc2)no1 [Example 28, 1-(5-tert-butylisoxazol-3-yl)-3-(4-(6-(3-morpholinopropylamino)pyridin-3-yl)phenyl)urea] | ≤ 1 | ≤ 10 | ≤ 1 | ≤ 1 |
| CN1CCCC1CCNc1ccc(-c2ccc(NC(=O)Nc3cc(C(C)(C)C)on3)cc2)cn1 (centres unmarked) [Example 29, 1-(5-tert-butylisoxazol-3-yl)-3-(4-(6-(2-(1-methylpyrrolidin-2-yl)ethylamino)pyridin-3-yl)phenyl)urea] | 1 to 10 | ≤ 10 | ≤ 1 | ≤ 1 |
| CCN1CCCC1CNc1ccc(-c2ccc(NC(=O)Nc3cc(C(C)(C)C)on3)cc2)cn1 (centres unmarked) [Example 30, 1-(5-tert-butylisoxazol-3-yl)-3-(4-(6-((1-ethylpyrrolidin-2-yl)methylamino)pyridin-3-yl)phenyl)urea] | 10 to 100 | 10 to 100 | ≤ 1 | 1 to 10 |
| CN(C(=O)Nc1cc(C(C)(C)C)on1)c1ccc(-c2ccc(N)nc2)cc1 [Example 31, 1-(4-(6-aminopyridin-3-yl)phenyl)-3-(5-tert-butylisoxazol-3-yl)-1-methylurea] | 10 to 100 | ≤ 10 | ≤ 1 | ≤ 1 |
| CC(C)(F)c1cc(NC(=O)Nc2ccc(-c3ccc(N)nc3)cc2)on1 [Example 32, 5-(4-(3-(3-(2-fluoropropan-2-yl)isoxazol-5-yl)ureido)phenyl)pyridin-2-aminium methanesulfonate] | 1 to 10 | ≤ 10 | ≤ 1 | ≤ 1 |
| Nc1ccc(-c2ccc(NC(=O)Nc3cc(C4(C(F)(F)F)CC4)on3)cc2)cn1 [Example 33, 5-(4-(3-(5-(1-(trifluoromethyl)cyclopropyl)isoxazol-3-yl)ureido)phenyl)pyridin-2-aminium methanesulfonate] | ≤ 1 | ≤ 10 | ≤ 1 | ≤ 1 |
| CC(CF)(CF)c1cc(NC(=O)Nc2ccc(-c3ccc(N)nc3)cc2)no1 [Example 34, 5-(4-(3-(5-(1,3-difluoro-2-methylpropan-2-yl)isoxazol-3-yl)ureido)phenyl)pyridin-2-aminium methanesulfonate] | ≤ 1 | ≤ 10 | ≤ 1 | ≤ 1 |
| CC(C)(c1cc(NC(=O)Nc2ccc(-c3ccc(N)nc3)cc2)no1)C(F)(F)F [Example 35, methanesulfonate] | ≤ 1 | ≤ 10 | 1 to 10 | ≤ 1 |
| O=C(Nc1ccc(-c2ccc(NCCN3CCOCC3)nc2)cc1)Nc1cc(C2(C(F)(F)F)CC2)on1 [Example 36, 4-(2-(5-(4-(3-(5-(1-(trifluoromethyl)cyclopropyl)isoxazol-3-yl)ureido)phenyl)pyridin-2-ylamino)ethyl)morpholin-4-ium methanesulfonate] | 1 to 10 | ≤ 10 | ≤ 1 | ≤ 1 |
| CC(CF)(CF)c1cc(NC(=O)Nc2ccc(-c3ccc(NCCN4CCOCC4)nc3)cc2)no1 [Example 37, 4-(2-(5-(4-(3-(5-(1,3-difluoro-2-methylpropan-2-yl)isoxazol-3-yl)ureido)phenyl)pyridin-2-ylamino)ethyl)morpholin-4-ium methanesulfonate] | 1 to 10 | ≤ 10 | ≤ 1 | ≤ 1 |
| CC(C)(F)c1cc(NC(=O)Nc2ccc(-c3ccc(NCCN4CCOCC4)nc3)cc2)on1 [Example 38, 4,4-(2-(5-(4-(3-(3-(2-fluoropropan-2-yl)isoxazol-5-yl)ureido)phenyl)pyridin-2-ylamino)ethyl)morpholin-4-ium methanesulfonate] | 10 to 100 | ≤ 10 | ≤ 1 | 1 to 10 |
| CC(C)(c1cc(NC(=O)Nc2ccc(-c3ccc(NCCN4CCOCC4)nc3)cc2)no1)C(F)(F)F [Example 39, 4-(2-(5-(4-(3-(5-(1,1,1-trifluoro-2-methylpropan-2-yl)isoxazol-3-yl)ureido)phenyl)pyridin-2-ylamino)ethyl)morpholin-4-ium methanesulfonate] | 1 to 10 | ≤ 10 | 1 to 10 | ≤ 1 |
| Nc1ccc(-c2ccc(NC(=O)Nc3cc(C4(C(F)(F)F)CC4)on3)nc2)cn1 [Example 40, 1-(6′-amino-3,3′-bipyridin-6-yl)-3-(5-(1-(trifluoromethyl)cyclopropyl)isoxazol-3-yl)urea] | 1 to 10 | ≤ 10 | ≤ 1 | ≤ 1 |
| CC(CF)(CF)c1cc(NC(=O)Nc2ccc(-c3ccc(N)nc3)cn2)no1 [Example 41, 1-(6′-amino-3,3′-bipyridin-6-yl)-3-(5-(1,3-difluoro-2-methylpropan-2-yl)isoxazol-3-yl)urea] | 1 to 10 | ≤ 10 | ≤ 1 | ≤ 1 |
| CS(=O)(=O)CCNc1ccc(-c2ccc(CC(=O)Nc3cc(C4(C(F)(F)F)CC4)on3)cc2)cn1 [Example 188] | ≤ 1 | 10 to 100 | 1 to 10 | – |
| Nc1cc(F)c(-c2ccc(CC(=O)Nc3cc(C4(C(F)(F)F)CC4)on3)cc2)cn1 [Example 189] | ≤ 1 | ≤ 10 | 1 to 10 | – |
| CC(C)(C)c1cc(NC(=O)Cc2ccc(-c3cnc4ccc(=O)[nH]c4c3)cc2)no1 [Example 191] | 1 to 10 | – | – | – |
